Columns and labels:
BChE (Human) = molecular target: T1, BChE (Human) (Homo sapiens, UniProt P06276); assay: BChE inhibition, Ellman's method; format: biochemical; details: for IC50: read-out: BChE (Human) IC50
T1 construct: purchased Sigma-Aldrich (Steinheim, Germany)
Experimental: (§1) The assay was performed in two steps.
(§2) All enzymes were obtained from Sigma-Aldrich (Steinheim, Germany). Ellman’s reagent and the substrates were obtained from Fluka (Buchs, Switzerland). The chemicals used to prepare the buffer solution were purchased from Merck (Darmstadt, Germany).
(§3) The enzyme inhibitory activities of the synthesized compounds were investigated by applying Ellman’s method. Enzyme solutions were dissolved in gelatin solution (1%; 2.5 units/mL). […] Then, the reaction was initiated by the addition of Ellman’s reagent 5,5′-Dithiobis(2-nitrobenzoic acid) (DTNB; 20 µL/well, 10 mM) and the substrate (10 µL/well, 75 mM). […] The enzyme solution was processed as a control. All readings were adjusted with blank-reading. All assays were performed in four independent wells. […] Absorbance differences between the two readings were taken, and percentage inhibition rates were calculated according to the following formula: % Inhibition=[(A(C)−A(B))−(A(I)−A(B))]/(A(C)−A(B))×100.
(§4) • Blank (B): the well in which the inhibitor compound and substrate were not added; • Control (C): the well where the inhibitor compound was not added; • A(B): the difference in absorbance reading for the blank; • A(C): the difference in absorbance reading for the control; • A(I): the difference in absorbance reading for the inhibitor compounds.

[1] = tested on: murine fibroblast healthy cell line (NIH3T3); assay: MTT cell viability assay; format: cell-based; details: 24 h, 0.000316 µM to 1000 µM, read-out: IC50 against NIH3T3
Experimental: The active compounds (4a, 4b, 4e, 4i, 4m, 4n, 4o, and 4t) were chosen to determine their cytotoxic activity toward a murine fibroblast healthy cell line (NIH3T3). After incubating the cells with active compounds at concentrations of 0.000316 µM to1000 µM for 24 h, the cell viability was measured using the 3-(4,5-dimethylthiazol-2-yl)-2,5-diphenyltetrazolium (MTT) assay. The inhibition percentage was calculated for each concentration of the test compounds. The IC50 values of the compounds were determined using a non-linear regression analysis over the calculated percentage inhibition values, and they are presented in Table 2. Accordingly, the cytotoxicity test proposed that the active derivatives were nontoxic against NIH3T3 cells at their active concentrations against BChE.
Healthy murine embryonic fibroblast cells (NIH3T3 cell line) were used for the cytotoxicity tests. The cell line and selected compounds were prepared for an MTT assay as reported previously. The optical densities (OD) of 96 well plates were recorded at 540 nm. […]

[2] = molecular target: T2, AChE (Electrophorus electricus) (Electrophorus electricus, UniProt O42275); assay: AChE inhibition, Ellman's method; format: biochemical
T2 construct: purchased Sigma-Aldrich (Steinheim, Germany)
Experimental: as §1, §2, §3, §4

AChE (Human) = molecular target: T3, AChE (Human) (Homo sapiens, UniProt P22303); assay: AChE inhibition, Ellman's method; format: biochemical
T3 construct: purchased Sigma-Aldrich (Steinheim, Germany)
Experimental: as §1, §2, §3, §4

BChE (Equine) = molecular target: T4, BChE (Equine) (Equus caballus, UniProt P81908); assay: biochemical; format: biochemical
T4 construct: purchased Sigma-Aldrich (Steinheim, Germany)
Experimental: as §1, §2, §3, §4

T1 sequence (P06276 29-602): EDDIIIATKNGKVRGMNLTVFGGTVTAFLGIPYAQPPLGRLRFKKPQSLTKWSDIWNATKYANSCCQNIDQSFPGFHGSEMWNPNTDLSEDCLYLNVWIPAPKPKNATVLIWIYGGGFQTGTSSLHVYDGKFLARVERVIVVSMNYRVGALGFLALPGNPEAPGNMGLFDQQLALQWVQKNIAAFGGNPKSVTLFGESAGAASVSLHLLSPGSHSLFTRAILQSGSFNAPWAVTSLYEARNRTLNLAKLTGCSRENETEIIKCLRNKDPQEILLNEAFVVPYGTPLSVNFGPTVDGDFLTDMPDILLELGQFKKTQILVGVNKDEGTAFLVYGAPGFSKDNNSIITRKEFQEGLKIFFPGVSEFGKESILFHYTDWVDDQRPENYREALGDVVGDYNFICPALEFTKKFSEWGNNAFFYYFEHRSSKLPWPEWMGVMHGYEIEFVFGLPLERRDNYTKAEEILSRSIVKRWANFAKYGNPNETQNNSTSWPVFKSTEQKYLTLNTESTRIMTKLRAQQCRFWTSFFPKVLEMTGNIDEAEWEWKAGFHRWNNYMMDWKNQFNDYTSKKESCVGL
T2 sequence (O42275 24-633): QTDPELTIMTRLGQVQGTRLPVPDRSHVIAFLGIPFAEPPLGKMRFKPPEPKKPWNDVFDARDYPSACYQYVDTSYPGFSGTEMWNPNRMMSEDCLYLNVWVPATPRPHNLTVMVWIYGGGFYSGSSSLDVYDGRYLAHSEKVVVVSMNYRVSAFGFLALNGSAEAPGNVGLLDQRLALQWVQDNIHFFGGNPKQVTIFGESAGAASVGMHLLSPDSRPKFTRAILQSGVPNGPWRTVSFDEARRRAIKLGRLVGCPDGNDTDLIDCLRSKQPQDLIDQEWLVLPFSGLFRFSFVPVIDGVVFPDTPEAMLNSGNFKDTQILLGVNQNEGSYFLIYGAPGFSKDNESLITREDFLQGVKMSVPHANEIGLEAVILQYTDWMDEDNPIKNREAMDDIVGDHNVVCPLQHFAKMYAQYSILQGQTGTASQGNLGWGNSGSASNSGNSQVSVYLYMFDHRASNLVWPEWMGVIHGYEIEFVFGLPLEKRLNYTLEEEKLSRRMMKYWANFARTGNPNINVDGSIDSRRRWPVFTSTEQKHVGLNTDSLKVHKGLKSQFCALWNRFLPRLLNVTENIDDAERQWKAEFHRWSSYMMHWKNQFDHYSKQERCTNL
T4 sequence (P81908 whole entry): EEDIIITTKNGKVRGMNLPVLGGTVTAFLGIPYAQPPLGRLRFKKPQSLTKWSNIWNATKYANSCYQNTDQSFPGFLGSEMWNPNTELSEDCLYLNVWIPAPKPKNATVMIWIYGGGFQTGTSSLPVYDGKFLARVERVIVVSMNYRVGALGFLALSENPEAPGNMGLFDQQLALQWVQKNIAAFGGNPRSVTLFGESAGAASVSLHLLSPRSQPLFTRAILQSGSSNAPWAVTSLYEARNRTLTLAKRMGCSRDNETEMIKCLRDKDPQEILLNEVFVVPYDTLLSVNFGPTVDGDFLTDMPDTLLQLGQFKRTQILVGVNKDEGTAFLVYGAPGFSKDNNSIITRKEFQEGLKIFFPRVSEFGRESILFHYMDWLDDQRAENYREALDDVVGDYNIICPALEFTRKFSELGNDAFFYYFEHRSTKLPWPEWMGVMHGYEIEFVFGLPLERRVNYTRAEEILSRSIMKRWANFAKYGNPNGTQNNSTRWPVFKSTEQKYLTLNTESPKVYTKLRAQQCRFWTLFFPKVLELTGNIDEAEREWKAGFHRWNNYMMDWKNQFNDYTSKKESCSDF
T3 sequence (P22303 32-614): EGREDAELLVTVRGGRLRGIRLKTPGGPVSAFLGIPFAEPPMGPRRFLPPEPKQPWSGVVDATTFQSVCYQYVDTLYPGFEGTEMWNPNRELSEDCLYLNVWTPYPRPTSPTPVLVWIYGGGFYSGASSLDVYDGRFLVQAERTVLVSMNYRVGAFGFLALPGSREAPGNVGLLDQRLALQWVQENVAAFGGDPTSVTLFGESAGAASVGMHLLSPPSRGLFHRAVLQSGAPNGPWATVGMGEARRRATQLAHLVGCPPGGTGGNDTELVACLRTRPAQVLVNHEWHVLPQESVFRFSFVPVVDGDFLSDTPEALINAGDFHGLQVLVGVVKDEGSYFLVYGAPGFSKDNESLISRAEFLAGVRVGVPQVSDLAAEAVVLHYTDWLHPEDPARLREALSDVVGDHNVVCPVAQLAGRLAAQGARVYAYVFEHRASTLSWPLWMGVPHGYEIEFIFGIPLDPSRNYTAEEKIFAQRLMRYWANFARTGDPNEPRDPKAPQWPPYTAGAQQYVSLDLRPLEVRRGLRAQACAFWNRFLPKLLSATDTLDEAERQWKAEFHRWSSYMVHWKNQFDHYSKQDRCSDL

SMILES	BChE (Human) inhibitory activity (%) ± SD (BChE (Human); 10^-3 M)	BChE (Human) inhibitory activity (%) ± SD (BChE (Human); 10^-4 M)	BChE (Human) inhibitory activity (%) ± SD (BChE (Human); 10^-5 M)	BChE (Human) inhibitory activity (%) ± SD (BChE (Human); 10^-6 M)	BChE (Human) inhibitory activity (%) ± SD (BChE (Human); 10^-7 M)	BChE (Human) inhibitory activity (%) ± SD (BChE (Human); 10^-8 M)	BChE (Human) inhibitory activity (%) ± SD (BChE (Human); 10^-9 M)	IC50 (BChE (Human))	IC50 [1]	AChE (Electrophorus electricus) inhibitory activity (%) ± SD ([2]; 10^-3 M)	AChE (Electrophorus electricus) inhibitory activity (%) ± SD ([2]; 10^-4 M)	AChE (Human) inhibitory activity (%) ± SD (AChE (Human); 10^-3 M)	AChE (Human) inhibitory activity (%) ± SD (AChE (Human); 10^-4 M)	IC50 (BChE (Equine))	BChE (Equine) inhibitory activity (%) ± SD (BChE (Equine); 10^-3 M)	BChE (Equine) inhibitory activity (%) ± SD (BChE (Equine); 10^-4 M)	BChE (Equine) inhibitory activity (%) ± SD (BChE (Equine); 10^-5 M)	BChE (Equine) inhibitory activity (%) ± SD (BChE (Equine); 10^-6 M)	BChE (Equine) inhibitory activity (%) ± SD (BChE (Equine); 10^-7 M)	BChE (Equine) inhibitory activity (%) ± SD (BChE (Equine); 10^-8 M)	other results
O=C(CSC(=S)N1CCN(CCO)CC1)Nc1c2ccccc2nc2ccccc12 [Compound 4e, 2-(9-Acridinylamino)-2-oxoethyl 4-(2-hydroxyethyl)piperazine-1-carbodithioate]	98.95±2.10%	* 96.57 ± 2.03%	55.00±1.20%	30.62±1.28%	26.54±0.74%	17.89±0.53%	8.72±0.30%	1.37 ± 0.057 µM	325 µM	48.67±1.51%	7.09 ± 0.64%	50.22±1.12%	10.13 ± 0.51%	1.42 ± 0.068 µM	97.00±3.16%	* 95.98 ± 2.88%	57.53±1.89%	29.52±1.07%	24.26±0.54%	18.89±0.84%	BChE (Equine) inhibitory activity (%) ± SD (BChE (Equine); 10^-9 M): 10.77±0.58%
O=C(CSC(=S)N1CCN(c2ccc(Cl)cc2)CC1)Nc1c2ccccc2nc2ccccc12 [Compound 4i, 2-(9-Acridinylamino)-2-oxoethyl 4-(4-chlorophenyl)piperazine-1-carbodithioate]	98.22±2.14%	* 72.90 ± 1.08%	42.99±1.02%	35.00±0.87%	30.49±0.56%	21.77±0.40%	20.69±0.38%	2.1 ± 0.085 µM	> 1000 µM	86.41±2.91%	35.91 ± 1.57%	89.20±1.25%	33.85 ± 1.15%	2.04 ± 0.068 µM	99.37±3.41%	* 69.51 ± 1.16%	44.32±0.79%	38.72±0.82%	33.65±0.45%	26.52±0.80%	BChE (Equine) inhibitory activity (%) ± SD (BChE (Equine); 10^-9 M): 25.73±0.70%
